Results on 13 molecules are retold here after US6894052B1, “Diarylalkylpiperazines active on the lower urinary tract” (Recordati S.A. Chemical and Pharmaceutical Company, priority 1997, dated 2005).

Each structure is given as a SMILES string. Counter-ions that a name gives are not always drawn. Like-named read-outs stand apart in the source and are kept apart here.

For one experiment, the target named is α1 adrenergic receptors. Kind of experiment: Radioreceptor binding to native α1 adrenergic receptors ([3H]prazosin, rat cerebral cortex membranes). As for the experimental part:
Binding studies on native α1 adrenergic receptors were carried out in membranes of rat cerebral cortex. Male Sprague Dawley rats (200-300 g, Charles River, Italy) were killed by cervical dislocation and cerebral cortexes were dissected and immediately frozen and stored at −70° C. until use. Tissue was homogenized (2×20 sec) in 50 volumes of cold 50 mM Tris-HCl buffer pH 7.4, using a Polytron homogenizer (speed 7). Homogenates were centrifuged at 48000×g for 10 min, resuspended in 50 volumes of the same buffer, incubated at 37° C. for 15 min and centrifuged and resuspended twice more. The final pellets were suspended in 100 volumes of 50 mM Tris-HCl buffer pH 7.4, containing 10 μM pargyline and 0.1% ascorbic acid. Membranes were incubated in a final volume of 1 ml for 30 min at 25° C. with 0.1-0.5 nM [^3H]prazosin, in the absence or presence of competing drugs; non-specific binding was determined in the presence of 10 μM phentolamine.
The incubation was stopped by addition of ice-cold 50 mM Tris-HCl buffer and rapid filtration through 0.2% polyethyleneimine-pretreated Whatman GF/B or Schleicher & Schuell GF52 filters. The filters were then washed with ice-cold buffer and the radioactivity retained on the filters counted by liquid scintillation spectrometry.
(§1) The inhibition of specific binding of the radioligands by the tested drugs was analyzed to estimate the IC50 value by using the non-linear curve-fitting program Allfit (De Lean et al., Am. J. Physiol. 235, E97-E102, 1978). The IC50 value is converted to an affinity constant (Ki) by the equation of Cheng & Prusoff (Cheng, Y. C.; Prusoff, W. H. Biochem. Pharmacol. 22, 3099-3108, 1973).

For experiment [1], the system named is rhythmic bladder voiding contractions. Kind of experiment: Volume-induced rhythmic bladder voiding contractions in anaesthetized rats. In kind it is in vivo, rat. Conditions: for ED50: Rattus norvegicus; for ED10min: extrapolated dose inducing 10 min of disappearance of the contractions. As for the experimental part:
Female Sprague Dawley rats weighing 225-275 g (Crl: CDo BR, Charles River Italia) were used. The animals were housed with free access to food and water and were maintained on a forced 12 h alternating light-dark cycle at 22-24° C. for at least one week, except during the experiment. The activity on the rhythmic bladder voiding contractions was evaluated according to the method of Dray (J. Pharmacol. Methods, 13:157, 1985), with some modifications as in Guarneri (Pharmacol. Res., 27:173, 1993). Briefly, rats were anesthetized by subcutaneous injection of 1.25 g/kg (5 ml/kg) urethane, after which the urinary bladder was catheterized via the urethra using PE 50 polyethylene tubing filled with physiological saline. The catheter was tied in place with a ligature around the external urethral orifice and was connected with conventional pressure transducers (Statham P23 ID/P23 XL). […] The bladder was then filled via the recording catheter by incremental volumes of warm (37° C.) saline until reflex bladder voiding contractions occurred (usually 0.8-1.5 ml). For intravenous (i.v.) injection of bioactive compounds, PE 50 polyethylene tubing filled with physiological saline was inserted into the jugular vein.
From the cystometrogram, the number of contractions recorded 15 min before (basal values) and after treatment, as well as the mean amplitude of these contractions (mean height of the peaks in mm Hg) was evaluated.
Since most compounds produced an effect that was relatively rapid in onset and led to a complete cessation of bladder contractions, bioactivity was conveniently estimated by measuring the duration of bladder quiescence (i.e., the duration of time during which no contractions occurred). Moreover, the number of animals tested showing a reduction in the number of contractions >30% of that observed in the basal period, was recorded. […] Also computed in this manner were extrapolated doses which induced a reduction of the number of contractions of greater than 30% in 50% of treated rats (ED50, frequency) by the method of Bliss (Bliss C. I., Quart. J. Pharm. Pharmacol. 11, 192-216, 1938). After the suppressive effects of drug injection wore off, the height of the contractile peaks was compared with the height of the peaks previously recorded after the control intravenous administration of vehicle. The potency of the tested compounds (ED50 value, the extrapolated doses inducing a 30% reduction of amplitude of the contractions in 50% of treated rats) was evaluated on a quantal basis by the method of Bliss (Bliss C. I., Quart. J. Pharm. Pharmacol. 11, 192-216, 1938).

The target of experiment [2] is T1, human 5-HT1A serotonergic receptor (Homo sapiens, UniProt P08908).
T1 construct: expressed in transfected cells; host or cells: HeLa (human), stably transfected; cell membranes
T1 sequence (P08908 1-422): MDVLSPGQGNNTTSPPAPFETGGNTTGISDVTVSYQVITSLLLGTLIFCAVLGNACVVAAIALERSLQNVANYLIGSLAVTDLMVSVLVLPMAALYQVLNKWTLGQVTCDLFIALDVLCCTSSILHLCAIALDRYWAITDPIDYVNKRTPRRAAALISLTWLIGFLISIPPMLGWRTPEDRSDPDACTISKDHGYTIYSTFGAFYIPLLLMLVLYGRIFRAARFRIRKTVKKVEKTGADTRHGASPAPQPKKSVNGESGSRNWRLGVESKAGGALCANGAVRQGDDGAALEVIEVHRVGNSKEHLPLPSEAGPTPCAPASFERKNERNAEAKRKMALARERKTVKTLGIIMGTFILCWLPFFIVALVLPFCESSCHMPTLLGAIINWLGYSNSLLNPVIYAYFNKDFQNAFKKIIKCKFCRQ
Kind of experiment: Radioreceptor binding to recombinant human 5-HT1A receptors ([3H]8-OH-DPAT, HeLa cell membranes). As for the experimental part: Genomic clone G-21 coding for the human 5-HT1A serotonergic receptor is stably transfected in a human cell line (HeLa). HeLa cells were grown as monolayers in Dulbecco's modified Eagle's medium (DMEM), supplemented with 10% fetal calf serum and gentamicin ([…]), 5% CO2 at 37° C. Cells were detached from the growth flask at 95% confluence by a cell scraper and were lysed in ice-cold 5 mM Tris and 5 mM EDTA buffer (pH 7.4). Homogenates were centrifuged at 40000×g×20 min and pellets were resuspended in a small volume of ice-cold 5 mM Tris and 5 mM EDTA buffer (pH 7.4) and immediately frozen and stored at −70° C. until use. On the day of experiment, cell membranes were resuspended in binding buffer: 50 mM Tris HCl (pH 7.4), 2.5 mM MgCl2, 10 μM pargyline (Fargin et al., Nature 335, 358-360, 1988). Membranes were incubated in a final volume of 1 ml for 30 min at 30° C. with 0.2-1 nM [^3H]8-OH-DPAT, in absence or presence of competing drugs; non-specific binding was determined in the presence of 10 μM 5-HT. The incubation was stopped by addition of ice-cold Tris-HCl buffer and rapid filtration through 0.2% polyethyleneimine-pretreated Whatman GF/B or Schleieher & Schuell GF52 filters.
as §1

The target of experiment [3] is T2, 5-HT2A serotonergic receptors (Rattus norvegicus, UniProt P14842).
T2 construct: from tissue; host or cells: cerebral cortex of male Sprague Dawley rats, membranes
T2 sequence (P14842 whole entry): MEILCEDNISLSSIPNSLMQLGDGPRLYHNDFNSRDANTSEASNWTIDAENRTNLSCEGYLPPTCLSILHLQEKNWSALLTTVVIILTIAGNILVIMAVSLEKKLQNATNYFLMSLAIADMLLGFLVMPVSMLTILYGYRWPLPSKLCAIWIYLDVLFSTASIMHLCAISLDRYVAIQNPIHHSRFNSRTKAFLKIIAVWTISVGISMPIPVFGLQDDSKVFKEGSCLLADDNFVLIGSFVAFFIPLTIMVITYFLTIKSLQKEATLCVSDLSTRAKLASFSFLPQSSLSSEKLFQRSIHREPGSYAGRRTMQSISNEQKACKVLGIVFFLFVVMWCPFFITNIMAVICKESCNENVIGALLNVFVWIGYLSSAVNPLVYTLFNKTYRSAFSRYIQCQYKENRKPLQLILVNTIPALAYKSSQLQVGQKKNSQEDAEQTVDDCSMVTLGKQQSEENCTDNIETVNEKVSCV
Kind of experiment: Radioreceptor binding to native 5-HT2A serotonergic receptors ([3H]ketanserin, rat cerebral cortex membranes). As for the experimental part:
Binding studies on native 5-HT2A serotonergic receptors (Craig A. and Kenneth J., Life Sci. 38, 117-127, 1986) were carried out in membranes of rat cerebral cortex. Male Sprague Dawley rats (200-300 g, S D Harlan/Nossan, Italy) were killed by cervical dislocation and cerebral cortexes were excised and immediately frozen in liquid nitrogen and stored at −70° C. until use. Tissues were homogenized (2×20 sec) in 50 volumes of cold 50 mM Tris-HCl buffer pH 7.4, using a Polytron homogenizer (speed 7). Homogenates were centrifuged at 49000×g for 10 min, resuspended in 50 volumes of the same buffer, incubated at 37° C. for 15 min and centrifuged and resuspended twice more. The final pellets were suspended in 100 volumes of 50 mM Tris-HCl buffer pH 7.7. Membranes were incubated in a final volume of 1 ml for 20 min at 37° C. with 0.7-1.3 nM [^3H]ketanserin (5-HT2A receptors), in absence or presence of competing drugs. Non-specific binding was determined in the presence of 2 μM ketanserin. The incubation was stopped by addition of ice-cold 50 mM Tris-HCl buffer and rapid filtration through 0.2% polyethyleneimine pretreated Whatman GF/B or Schleicher & Schuell GF52 filters. The filters are then washed with ice-cold buffer and the radioactivity retained on the filters was counted by liquid scintillation spectrometry.
as §1

Setting [4] is: intravenous administration, anaesthetized rats, extrapolated dose inducing a reduction of the number of contractions >30% in 50% of treated rats, read-out: ED50 (frequency).
Setting [5] is: intravenous administration, anaesthetized rats.
Where [6] appears, read: recombinant human receptor in HeLa membranes, [3H]8-OH-DPAT, read-out: Ki 5-HT1A.
Where [7] appears, read: intravenous administration, anaesthetized rats, extrapolated dose inducing 30% reduction of amplitude of the contractions in 50% of treated rats, n.a. = not active, no significant reduction of the height of peaks, read-out: ED50 (amplitude).
[8] abbreviates: rat cerebral cortex membranes, [3H]ketanserin, read-out: Ki 5-HT2A.

On to `COc1ccccc1N1CCN(CCN(c2ccccn2)c2ccccc2[N+](=O)[O-])CC1` [Ex. 11, 1-[N-(2-nitrophenyl)-N-(2-pyridyl)-2-aminoethyl]-4-(2-methoxyphenyl)-piperazine], for which the Ki (in general, the dissociation constant of the complex between target and ligand, obtained from inhibition or displacement) at α1 adrenergic receptors worked out at 62.5 nM; in experiment [2] (setting [6]), 6.74 nM. Also, the ED50 (as a rule, the dose that gives a 50% effect, or the effect in half of the subjects) in experiment [1] (setting [4]) is 0.024 mg/kg. In addition, in experiment [1] (setting [5]), the ED10min was 162 µg/kg.

With `CCN(CC)CC#CCOC(=O)C(O)(c1ccccc1)C1CCCCC1` (stereo not shown) [Oxybutynin, reference compound], the ED50 in experiment [1] (setting [7]) is 0.24 mg/kg; in experiment [1] (setting [4]), 10 mg/kg. In experiment [1] (setting [5]), the ED10min was 7770 µg/kg.

As for `COc1ccccc1N1CCN(CCC(C#N)(c2ccccc2)c2ccccc2[N+](=O)[O-])CC1` (stereo not shown) [Ex. 12, 1-[3-cyano-3-(2-nitrophenyl)-3-phenylpropyl]-4-(2-methoxyphenyl)piperazine], the Ki came to 226 nM on α1 adrenergic receptors, 790 nM in experiment [3] (setting [8]) and 1.45 nM in experiment [2].

For the molecule `COc1ccccc1N1CCN(CCC(c2ccccn2)c2ccccn2)CC1` [Ex. 8, 1-[3,3-bis-(2-pyridyl)propyl]-4-(2-methoxyphenyl)piperazine], the Ki at α1 adrenergic receptors worked out at 191 nM; in experiment [3] (setting [8]) it was 320 nM; in experiment [2] (setting [6]) it was 3.97 nM. Further, in experiment [1] (setting [4]), the ED50 is 0.0025 mg/kg. Also, in experiment [1] (setting [5]), the ED10min was 74 µg/kg.

Consider `Cc1c(-c2ccccc2)oc2c(C(=O)OCCN3CCCCC3)cccc2c1=O` [Flavoxate, reference compound], for which the “effect on the amplitude of the bladder contractions (in words)” value in experiment [1] (setting [5]) is “did not affect the amplitude of the contractions”. Besides, the ED10min in experiment [1] (intravenous administration, anaesthetized rats, in µg/kg) is reported as more than 10000.

Regarding `CN(C)CCCN1c2ccccc2CCc2ccccc21` [Imipramine, reference compound], the ED50 in experiment [1] (setting [7]) was 2.93 mg/kg. Further, the ED50 in experiment [1] (setting [4]) is 4.93 mg/kg. Moreover, in experiment [1] (setting [5]), the “effect on the amplitude of the bladder contractions (in words)” value was “did not affect the amplitude of the contractions” and the ED10min is more than 6000 µg/kg.

As for `COc1ccccc1N1CCN(CCC(C#N)(c2ccccc2)c2ccccn2)CC1.Cl.Cl` (stereo not shown) [Ex. 7, 1-[3-cyano-3-phenyl-3-(2-pyridyl)propyl]-4-(2-methoxyphenyl)piperazine dihydrochloride], the Ki at α1 adrenergic receptors stood at 396 nM; in experiment [3] it was 140 nM; in experiment [2] (setting [6]) it was 7.7 nM. For the same molecule, the ED50 in experiment [1] (iv, read-out: ED50 (frequency)) was 0.018 mg/kg. Further, in experiment [1] (setting [5]), the ED10min was 78 µg/kg.

For the molecule `COc1ccccc1N1CCN(CCC(C#N)(c2ccccn2)c2ccccn2)CC1` [Ex. 6, 1-[3-cyano-3,3-bis-(2-pyridyl)propyl]-4-(2-methoxyphenyl)piperazine], the Ki amounted to 1250 nM at α1 adrenergic receptors and 13.3 nM in experiment [2]. In addition, the ED50 in experiment [1] (setting [4]) was 0.093 mg/kg. The ED10min in experiment [1] (setting [5]) was 225 µg/kg.

Take `COc1ccccc1N1CCN(CCN(c2ccccn2)c2ccccn2)CC1.Cl` [Ex. 5, 1-[N-N-bis-(2-pyridyl)-2-aminoethyl]-4-(2-methoxyphenyl)piperazine hydrochloride]: in experiment [1] (setting [5]), the ED10min was 523 µg/kg. Also, the “ED50 (frequency)” value in experiment [1] (intravenous administration, anaesthetized rats, extrapolated dose inducing a reduction of the number of contractions >30% in 50% of treated rats) was 77 µg/kg.

With `COc1ccccc1N1CCN(CCC(c2ccccc2)c2ccccc2)CC1` [Ex. 1, 1-(3,3-diphenylpropyl)-4-(2-methoxyphenyl)piperazine hydrochloride], the Ki at α1 adrenergic receptors amounted to 145 nM; in experiment [3] (setting [8]), 320 nM; in experiment [2] (setting [6]), 3.9 nM.

Take `COc1ccccc1N1CCN(CCC(C(N)=O)(c2ccccc2)c2ccccc2[N+](=O)[O-])CC1` (stereo not shown) [Ex. 13, 1-[3-aminocarbonyl-3-(2-nitrophenyl)-3-phenylpropyl]-4-(2-methoxyphenyl)-piperazine]: the Ki at α1 adrenergic receptors was 365 nM; in experiment [2] it was 2.3 nM. Further, the ED50 in experiment [1] (setting [4]) was 0.084 mg/kg.

In the case of `c1ccc(C(CCN2CCN(c3cccc4c3OCCO4)CC2)c2ccccc2)cc1` [Ex. 2, 1-(3,3-diphenylpropyl)-4-[5-(2,3-dihydro-1,4-benzodioxinyl)]piperazine methanesulphonate], the Ki at α1 adrenergic receptors turned out to be 208 nM; in experiment [3] (setting [8]), 159 nM; in experiment [2] (setting [6]), 0.6 nM.

Take `COc1ccccc1N1CCN(CCC(C(N)=O)(c2ccccn2)c2ccccc2[N+](=O)[O-])CC1` (stereo not shown) [Ex. 17, 1-[3-aminocarbonyl-3-(2-nitrophenyl)-3-(2-pyridyl)propyl]-4-(2-methoxyphenyl)-piperazine]: the inhibition constant (Ki) was 307 nM at α1 adrenergic receptors and 5.18 nM in experiment [2].
